Assay results published in patent US20180360707A1, “COMPOSITION AND METHOD FOR INCREASE OF SURVIVAL AND STABILIZATION OF PROBIOTIC BACTERIA (PB) IN DETERGENT BASED COMPOSITIONS OF PERSONAL HYGIENE AND DOMESTIC PRODUCTS” (UAB "PROBIOSANUS", priority 2015, published 2018).

Test system: Bacillus coagulans DSM 2311
Test: Analysis of encapsulated and non-capsulated bacteria viability (CFU survival) in detergent solution, cosmetic compound solution or final detergent based product
Type: cell-based
Procedure: For all experimental trails probiotic strain of Bacillus coagulans DSM 2311 was used which was obtained from DSMZ. Bacterial cell suspension was prepared by cultivation of B. coagulans cells in 100 mL of liquid nutrient broth medium (Oxoid) in 1000 mL Erlenmeyer flask, for 24 hours at 37° C. while shaking at 180 rmp. Prior to encapsulation the cells were collected by centrifugation at 6000 rpm using Rotofix 32 A Hettich, then washed twice and re-suspended in sterile 0.9% NaCl solution to obtain cell concentration of 10^11 per mL.
1 g of ˜10^10 bacteria-containing lyophilized and rehydrated or fresh microcapsules was added to the fixed volume (100 mL) of either: detergent solution, cosmetic compound containing solution or final formulation detergent based product, and incubated at 37° C. temperature. The samples were harvested at certain timepoints to evaluate bacterial survival. After sample harvest the bacterial capsules were washed twice with sterile water and added to a fixed volume of sterile 2% sodium citrate solution for liberation of encapsulated bacteria. The cell suspension was diluted from 10^1 to 10^5 fold and 100 μL of solution was plated on Petri dishes filled with Nutrient Broth solid medium. The survival rates [%] of capsulated and non-capsulated bacteria was estimated by comparing CFU averages at each sample point, from 3 replicas. See formulas:
[formula] • N—estimated CFU; • CFU—sum of calculated colonies from each evaluated Petri plates • Vp—plated volume • Vfd—final dilution volume • D—dilution fold • Survival of bacteria [%]=N(1+n)/N1*100 • N1—bacterial CFU's from first timepoint sample • N(1+n)—bacterial CFU's from following timepoint sample
1 g of 10^10 bacteria-containing rehydrated or fresh microcapsules was added to the fixed volume (100 mL) of detergent solution and incubated for 120 hours at 37° C. temperature. A parallel experiment was performed with non-capsulated cells (control group). After the sample harvest the bacterial capsules were washed twice with sterile water and added to the fixed volume of sterile 2% sodium citrate solution for liberation of encapsulated bacteria. The cell suspension was diluted 10^1-10^5 fold and 100 μL plated on replicates of Nutrient Broth solid medium. The survival rates [%] of capsulated and non-capsulated bacteria were estimated as described in the section—Analysis of encapsulated bacteria viability in detergent based solution, by comparing CFU averages at each sample time point from 3 replicas.
1 g of 10^10 bacteria containing lyophilized-rehydrated microcapsules was added to the fixed volume (100 mL) of solutions of: Grapefruit seed extract d-limonene, or Azadirachta indica extract and incubated for 120 hours at 37° C. temperature. A parallel experiment was performed with non-capsulated cells. After sample harvest the bacterial capsules were washed twice with sterile water and added to the fixed volume of sterile 2% sodium citrate solution for liberation of encapsulated bacteria. The cell suspension was diluted 10^1-10^5 fold and 100 μL of solution was plated on replicates of Nutrient Broth solid medium. The survival rates [%] of capsulated and non-capsulated bacteria were estimated as described in the section—Analysis of encapsulated bacteria viability in detergent based solution, by comparing CFU averages at each sample point, from 3 replicas. […]

`CCCCCCCCCCCCOS(=O)(=O)[O-].[Na+]` [SLS, sodium lauryl sulphate] showed a non-capsulated bacteria inactivated (6.7% sodium lauryl sulphate (SLS) solution, 37° C.) of 80%.

`C=C(C)[C@H]1CC=C(C)CC1` [terpenes, d-limonene] was tested, and the “non-capsulated B. Coagulans bacteria inactivated” value (0.7% terpene d-limonene solution, in 2 hours) was 100%.

With cocamide diethanolamine the non-capsulated bacteria inactivated (3% cocamide diethanolamine solution, 37° C.) was 75%.

With cocoamide propyl betaine [CAPB] the “non-capsulated bacteria (starting titers) inactivated” value (cocoamide propyl betaine (CAPB) 6.7% solution, after 0.5 h, 37° C.) was 97%.

cocoglycozide was tested, and the non-capsulated bacteria inactivated (7% cocoglycozide solution, 37° C.) was 75%.
